ChEMBL document CHEMBL1201862, “PubChem BioAssay data set” (2004)
“And” between values parts separate entries of the source, which are not always exact repeats. Equal values may be shown once.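 Method: 48-hour compound exposure of cells in 96-well plates, five concentrations, linear interpolation of endpoints. GI50 is the concentration that inhibits growth by half.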 The source made the active and inactive calls. No stated cut-off is given here; in the data, active = GI50 up to about 1.1 µM and inactive = higher.

What was measured:
Test in all cases: inhibition of tumour cell growth, NCI panel, 48 h
SF-539 = system: SF-539
NCI-H226 = system: NCI-H226
NCI-H23 = system: NCI-H23
A498 = system: A498
K562 = system: K562
786-0 = system: 786-0
NCI/ADR-RES = system: NCI/ADR-RES
HOP-62 = system: HOP-62
BT-549 = system: BT-549
Hs-578T = system: Hs-578T
CCRF-CEM = system: CCRF-CEM
HCT-15 = system: HCT-15
Malme-3M = system: Malme-3M
SW-620 = system: SW-620
MCF7 = system: MCF7
UO-31 = system: UO-31
RPMI-8226 = system: RPMI-8226
HCC 2998 = system: HCC 2998
MOLT-4 = system: MOLT-4
UACC-257 = system: UACC-257
TK-10 = system: TK-10
HL-60 = system: HL-60
NCI-H460 = system: NCI-H460
LOX IMVI = system: LOX IMVI
OVCAR-4 = system: OVCAR-4
OVCAR-5 = system: OVCAR-5
DU-145 = system: DU-145
RXF 393 = system: RXF 393
SK-MEL-2 = system: SK-MEL-2
UACC-62 = system: UACC-62
SK-OV-3 = system: SK-OV-3
T47D = system: T47D
SR = system: SR
NCI-H522 = system: NCI-H522
SF-295 = system: SF-295
SNB-75 = system: SNB-75
A549 = system: A549
PC-3 = system: PC-3
M14 = system: M14
SNB-19 = system: SNB-19
IGROV-1 = system: IGROV-1
MDA-MB-435 = system: MDA-MB-435
HT-29 = system: HT-29
MDA-N = system: MDA-N
MDA-MB-231 = system: MDA-MB-231
CAKI-1 = system: CAKI-1
OVCAR-8 = system: OVCAR-8
U-251 = system: U-251
OVCAR-3 = system: OVCAR-3
COLO 205 = system: COLO 205
SF-268 = system: SF-268
SN12C = system: SN12C
SK-MEL-28 = system: SK-MEL-28
ACHN = system: ACHN
KM12 = system: KM12
EKVX = system: EKVX
HCT-116 = system: HCT-116
SK-MEL-5 = system: SK-MEL-5

## c1ccc(P(CCP(CCP(c2ccccc2)c2ccccc2)c2ccccc2)CCP(c2ccccc2)c2ccccc2)cc1 (stereo not given)
SF-539
  GI50: > 6.25 µM (inactive)
NCI-H226
  GI50: > 5.22 µM (inactive)
NCI-H23
  GI50: > 5.38 µM (inactive)
A498
  GI50: > 10 µM (inactive) and > 8.65 µM (inactive)
K562
  GI50: 1.28 µM (inactive)
786-0
  GI50: 1.82 µM (inactive)
NCI/ADR-RES
  GI50: > 10 µM (inactive) and > 5.58 µM (inactive)
HOP-62
  GI50: > 10 µM (inactive)
BT-549
  GI50: > 10 µM (inactive)
Hs-578T
  GI50: 3.85 µM (inactive)
CCRF-CEM
  GI50: 1.23 µM (inactive)
HCT-15
  GI50: 9.77 µM
Malme-3M
  GI50: > 10 µM (inactive)
SW-620
  GI50: 5.05 µM (inactive)
MCF7
  GI50: 1.67 µM (inactive)
UO-31
  GI50: > 10 µM (inactive) and > 6.82 µM (inactive)
RPMI-8226
  GI50: 1.68 µM (inactive)
HCC 2998
  GI50: 2.06 µM (inactive)
MOLT-4
  GI50: 1.41 µM (inactive)
UACC-257
  GI50: > 10 µM (inactive)
TK-10
  GI50: > 10 µM (inactive)
HL-60
  GI50: 0.63 µM (active)
NCI-H460
  GI50: 1.72 µM (inactive)
LOX IMVI
  GI50: 1.51 µM (inactive)
OVCAR-4
  GI50: 7.33 µM (inactive)
OVCAR-5
  GI50: > 5.45 µM (inactive)
DU-145
  GI50: > 9.16 µM (inactive)
RXF 393
  GI50: > 5.6 µM (inactive)
SK-MEL-2
  GI50: 9.44 µM (inactive)
UACC-62
  GI50: 6.55 µM (inactive)
SK-OV-3
  GI50: > 10 µM (inactive)
T47D
  GI50: 2.12 µM (inactive)
SR
  GI50: 1.1 µM (active)
NCI-H522
  GI50: 2.69 µM (inactive)

## CC1(C)CC(=O)c2c(nc3c(ccc4ccccc43)c2-c2ccc(NC(=O)CCCC(=O)Nc3ccc(-c4c5c(nc6c4ccc4ccccc46)CC(C)(C)CC5=O)cc3)cc2)C1
SF-539
  GI50: > 100 µM (inactive)
SF-295
  GI50: > 100 µM (inactive)
NCI-H226
  GI50: > 100 µM (inactive)
SNB-75
  GI50: > 100 µM (inactive)
A549
  GI50: > 100 µM (inactive)
PC-3
  GI50: > 100 µM (inactive)
M14
  GI50: > 100 µM (inactive)
K562
  GI50: > 100 µM (inactive)
786-0
  GI50: > 100 µM (inactive)
SNB-19
  GI50: > 100 µM (inactive)
NCI/ADR-RES
  GI50: > 100 µM (inactive)
IGROV-1
  GI50: 58.5 µM (inactive)
HOP-62
  GI50: > 100 µM (inactive)
Hs-578T
  GI50: > 100 µM (inactive)
CCRF-CEM
  GI50: > 100 µM (inactive)
HCT-15
  GI50: 46.5 µM
MDA-MB-435
  GI50: > 100 µM (inactive)
SW-620
  GI50: > 100 µM (inactive)
HT-29
  GI50: > 100 µM (inactive)
MCF7
  GI50: > 100 µM (inactive)
UO-31
  GI50: > 100 µM (inactive)
MDA-N
  GI50: > 100 µM (inactive)
MDA-MB-231
  GI50: > 100 µM (inactive)
CAKI-1
  GI50: > 100 µM (inactive)
RPMI-8226
  GI50: > 100 µM (inactive)
OVCAR-8
  GI50: > 100 µM (inactive)
MOLT-4
  GI50: > 100 µM (inactive)
U-251
  GI50: > 100 µM (inactive)
UACC-257
  GI50: > 100 µM (inactive)
OVCAR-3
  GI50: > 100 µM (inactive)
COLO 205
  GI50: > 100 µM (inactive)
TK-10
  GI50: > 100 µM (inactive)
SF-268
  GI50: > 100 µM (inactive)
SN12C
  GI50: > 100 µM (inactive)
HL-60
  GI50: > 100 µM (inactive)
NCI-H460
  GI50: > 100 µM (inactive)
LOX IMVI
  GI50: > 100 µM (inactive)
SK-MEL-28
  GI50: > 100 µM (inactive)
ACHN
  GI50: > 100 µM (inactive)
OVCAR-5
  GI50: > 100 µM (inactive)
KM12
  GI50: > 100 µM (inactive)
EKVX
  GI50: > 100 µM (inactive)
HCT-116
  GI50: > 100 µM (inactive)
DU-145
  GI50: > 100 µM (inactive)
SK-MEL-5
  GI50: > 100 µM (inactive)
RXF 393
  GI50: > 100 µM (inactive)
SK-MEL-2
  GI50: > 100 µM (inactive)
SK-OV-3
  GI50: > 100 µM (inactive)
T47D
  GI50: > 100 µM (inactive)
SR
  GI50: > 100 µM (inactive)
NCI-H522
  GI50: > 100 µM (inactive)
